How the values were obtained:
[1] = Partition coefficient (logP); format: physicochemical; details: octanol/water
Mus musculus [2] = test: Maximum increase in life span was measured in B6d2F1 mice after implanting murine leukemia L1210 cells(ic, 10e4 cells) at an intracerebral optimal dose of 160 mg/ (kg day)(qd 1-9); format: functional
Mus musculus [3] = test: Maximum increase in life span was measured in B6d2F1 mice after implanting murine leukemia L1210 cells(ip, 10e5 cells) at an intraperitoneal optimal dose of 39 mg/ (kg day)(qd 1-9); format: functional
Mus musculus [4] = test: Percent increase in life span was measured in B6C3F1 mice after implanting murine Ependymoblastoma cells(ic) at an intraperitoneal optimal dose of 128 mg/ (kg injection)
Mus musculus [5] = test: Maximum increase in life span was measured in B6d2F1 mice after implanting murine leukemia L1210 cells(ip, 10e5 cells) at an intraperitoneal optimal dose of 108 mg/ (kg day)(qd 1-9); format: functional
Mus musculus [6] = test: Percent increase in life span was measured in B6C3F1 mice after implanting murine Ependymoblastoma cells(ic) at an intraperitoneal optimal dose of 64 mg/ (kg injection)
Mus musculus [7] = test: Maximum increase in life span was measured in B6d2F1 mice after implanting murine leukemia L1210 cells(ic, 10e4 cells) at an intracerebral optimal dose of 40 mg/ (kg day)(qd 1-9); format: functional
Mus musculus [8] = test: Maximum increase in life span was measured in B6d2F1 mice after implanting murine leukemia L1210 cells(ic, 10e4 cells) at an intracerebral optimal dose of 80 mg/ (kg day)(qd 1-9); format: functional
Mus musculus [9] = test: Percent increase in life span was measured in B6C3F1 mice after implanting murine Ependymoblastoma cells(ic) at an intraperitoneal optimal dose of 32 mg/ (kg injection)
Mus musculus [10] = test: Maximum increase in life span was measured in B6d2F1 mice after implanting murine leukemia L1210 cells(ic, 10e4 cells) at an intracerebral optimal dose of 40 mg/(kg day)(qd 1-9); format: functional
Mus musculus [11] = test: Maximum increase in life span was measured in B6d2F1 mice after implanting murine leukemia L1210 cells(ip, 10e5 cells) at an intraperitoneal optimal dose of 65 mg/(kg day)(qd 1-9); format: functional
Mus musculus [12] = test: Maximum increase in life span was measured in B6d2F1 mice after implanting murine leukemia L1210 cells(ip, 10e5 cells) at an intraperitoneal optimal dose of 65 mg/ (kg day)(qd 1-9); format: functional
Mus musculus [13] = test: Maximum increase in life span was measured in B6d2F1 mice after implanting murine leukemia L1210 cells(ic, 10e4 cells) at an intracerebral optimal dose of 20 mg/ (kg day)(qd 1-9); format: functional
Mus musculus [14] = test: Percent increase in life span was measured in B6C3F1 mice after implanting murine Ependymoblastoma cells(ic) at an intraperitoneal optimal dose of 8 mg/ (kg injection)
Mus musculus [15] = test: Percent increase in life span was measured in B6d2F1 mice after implanting B16 melanoma cells(ic) at an intracerebral (ic) optimal dose of 40-80 mg/ (kg day); format: functional
Mus musculus [16] = test: Maximum increase in life span was measured in B6d2F1 mice after implanting murine leukemia L1210 cells(ip, 10e5 cells) at an intraperitoneal optimal dose of 300 mg/ (kg day)(qd 1-9); format: functional
Mus musculus [17] = test: Percent increase in life span was measured in B6d2F1 mice after implanting B16 melanoma cells(ic) at an intracerebral (ic) optimal dose of 10-40 mg/ (kg day); format: functional

For `COC(=O)c1cccc(/N=N/N(C)C)c1`, the logP ([1]; read-out: logP) was 2.77, the ILS (Mus musculus [2]) was 10% and the ILS (Mus musculus [3]) was 30%. The ILS (Mus musculus [4]) was 62%.
For `CN(C)/N=N/c1c(Br)cccc1Br`, the logP ([1]; read-out: logP) was 4.31, the ILS (Mus musculus [2]) was 14% and the ILS (Mus musculus [5]) was 44%.
For `COC(=O)c1ccc(/N=N/N(C)C)cc1`, the logP ([1]; read-out: logP) was 2.77, the ILS (Mus musculus [2]) was 7% and the ILS (Mus musculus [3]) was 40%. For the same compound, the ILS (Mus musculus [6]) was 64%.
In the case of `CN(C)/N=N/c1cccc(C(N)=O)c1`, the logP ([1]; read-out: logP) is reported as 1.21, the ILS (Mus musculus [7]) is reported as 22% and the ILS (Mus musculus [3]) is reported as 50%.
`CN(C)/N=N/c1ccc(C(=O)O)cc1` showed a logP [1] of -1.77, an ILS (Mus musculus [8]) of 25% and an ILS (Mus musculus [3]) of 41%. It also gave an ILS (Mus musculus [9]) of 18%.
Work on `COC(=O)c1ccccc1/N=N/N(C)C` yielded a logP ([1]; read-out: logP) of 2.72, an ILS (Mus musculus [10]) of 14% and an ILS (Mus musculus [11]) of 11%.
`CN(C)/N=N/c1ccccc1Cl` gave an ILS (Mus musculus [8]) of 5%, an ILS (Mus musculus [12]) of 21% and an ILS (Mus musculus [4]) of 38%.
Work on `CN(C)/N=N/c1ccccc1C(=O)O` yielded a logP ([1]; read-out: logP) of -2.66, an ILS (Mus musculus [13]) of 6% and an ILS (Mus musculus [12]) of 12%. For the same compound, the ILS (Mus musculus [14]) was 2%.
In the case of `CN(C)/N=N/c1ccc(C(N)=O)cc1`, the logP [1] is reported as 1.2, the ILS (Mus musculus [2]) is reported as 45% and the ILS (Mus musculus [3]) is reported as 40%. For the same compound, the ILS (Mus musculus [15]) was 30% and the ILS (Mus musculus [9]) was 62%.
In the case of `CN(C)/N=N/c1c(Cl)cccc1Cl`, the logP ([1]; read-out: logP) is reported as 4.01, the ILS (Mus musculus [2]) is reported as 12% and the ILS (Mus musculus [5]) is reported as 39%.
Compound `CN(C)/N=N/c1cccc(Cl)c1` has a logP ([1]; read-out: logP) of 3.3, an ILS (Mus musculus [7]) of 7% and an ILS (Mus musculus [5]) of 11%.
With `CC(=O)c1ccccc1/N=N/N(C)C` the logP ([1]; read-out: logP) was 2.19, the ILS (Mus musculus [7]) was 9% and the ILS (Mus musculus [5]) was 0%.
`CC(=O)c1cccc(/N=N/N(C)C)c1` gave a logP ([1]; read-out: logP) of 2.19, an ILS (Mus musculus [7]) of 6% and an ILS (Mus musculus [12]) of 55%.
Work on `CN(C)/N=N/c1ccccc1C(N)=O` yielded an ILS (Mus musculus [7]) of 10% and an ILS (Mus musculus [12]) of 10%.
With `CN(C)/N=N/c1ccc(I)cc1` the logP ([1]; read-out: logP) was 3.71 and the ILS (Mus musculus [16]) was 5%.
Work on `CN(C)/N=N/c1ccc(Br)cc1` yielded a logP ([1]; read-out: logP) of 3.45 and an ILS (Mus musculus [16]) of 0%.
`CC(=O)c1ccc(/N=N/N(C)C)cc1` gave a logP ([1]; read-out: logP) of 2.19, an ILS (Mus musculus [13]) of 5% and an ILS (Mus musculus [5]) of 16%.
Work on `CN(C)/N=N/c1ccc(F)cc1` yielded a logP ([1]; read-out: logP) of 2.73 and an ILS (Mus musculus [16]) of 16%.
`CN(C)/N=N/c1ccc(Cl)cc1` showed a logP ([1]; read-out: logP) of 3.3, an ILS (Mus musculus [8]) of 2% and an ILS (Mus musculus [5]) of 26%.
Compound `CN(C)/N=N/c1[nH]cnc1C(N)=O` [DACARBAZINE] has a logP [1] of -0.24, an ILS (Mus musculus [2]) of 18% and an ILS (Mus musculus [5]) of 50%. For the same compound, the ILS (Mus musculus [17]) was 8% and the ILS (Mus musculus [6]) was 60%.

Reference: ChEMBL document CHEMBL1122548, “1-Aryl-3,3-dimethyltriazenes: potential central nervous system active analogues of 5-(3,3-dimethyl-1-triazeno)imidazole-4-carboxamide (DTIC)” (J Med Chem, 1984)
